{"source": "patent US6878751B1", "about": "“Administration of resveratrol to treat inflammatory respiratory disorders” (Imperial College of Science Technology and Medicine, priority 2000, dated 2005)", "key": {"[1]": {"test_system": "CRE dependent transcription", "experiment": "CRE luciferase reporter in stably transfected A549 cells", "assay_type": "cell-based, human", "protocol": "(§1) The expression of inflammatory genes was then evaluated in cells transformed with luciferase reporter genes containing sites for transcription factors (Tf, Tfs). The A549 cells were stably transfected by routine methods with luciferase reporters containing the transcription factors NF-κB, TRE (AP-1, TPA responsive element) and CRE (cAMP responsive element). Luciferase activity of cell lysates resuspended in […] cell lysis buffer mixed (40 mml resuspended lysate: 40 mml assay reagent) was measured using the Luciferase Assay System (Promega), with emitted light measured by a Turner DesignsTD-20/20 luminometer (Steptech Instruments Ltd., Stevenage, U.K.)"}, "[2]": {"test_system": "NF-κB dependent transcription", "experiment": "NF-κB luciferase reporter in stably transfected A549 cells", "assay_type": "cell-based, human", "protocol": "as §1"}}, "data": [{"compound": "C[C@@H]1C[C@H]2[C@@H]3CCC4=CC(=O)C=C[C@]4(C)[C@@]3(F)[C@@H](O)C[C@]2(C)[C@@]1(O)C(=O)CO", "note": "[Dexamethasone, dexamethasone, reference compound]", "values": [{"measurement": "extent of inhibition of CRE dependent transcription", "setting": "[1]", "value": 62, "unit": "%"}, {"measurement": "EC50", "setting": "[1]; Homo sapiens, read-out: EC50 for inhibition of CRE dependent transcription", "value": "3.4 ± 3", "unit": "µM"}, {"measurement": "extent of inhibition of NF-κB dependent transcription", "setting": "[2]", "value": 41, "unit": "%"}, {"measurement": "EC50", "setting": "[2]; Homo sapiens, read-out: EC50 for inhibition of NF-κB dependent transcription", "value": "16 ± 12", "unit": "µM"}]}]}
